EP2698385A1, “Detection of synthetic cannabinoids” (priority 2012, dated 2014)
Like-named read-outs stand apart in the source and are kept apart here.

Legend:
Assay type in all cases: binding, sheep
Antibody to Immunogen II = assay: Competitive ELISA (Example 36), antibody RS1833B12, tracer ESC4555/LK959, standard JWH-018; details: Cross-reactants at 100 ng/ml; Antibody to Immunogen II
Experimental: (§1) An aqueous solution of each immunogen was formulated with Freund's Complete Adjuvant (FCA) to form an emulsion consisting of 2mg/ml* immunogen in 50% (v/v) FCA. Three sheep were immunised with this emulsion (1° immunisation), 0.25ml being intramuscularly injected at each of four sites in the flank of each animal. Subsequent immunizations (boosts) contained 1mg/ml* immunogen. All boosts were emulsified in 50% (v/v) Freund's Incomplete Adjuvant (FIA) and were administered in the same manner as the 1° immunisation, at monthly intervals. Blood sampling took place 7 to 14 days after each boost. *The general procedure for immunogen administration is outlined above, however, it was necessary to deviate from this protocol in some cases, due to reduced immunogen concentrations (Immunogens II, IV, VII and VIII) and/or amount available (Immunogen VIII). Any deviations from the protocol described are outlined in Table 1A below and highlighted in bold. Table 1A: Amount and volume of immunogens administered for primary and subsequent boosts
The appropriate antibody coating dilution was determined using standard ELISA checkerboard techniques. The plate was incubated overnight at 4°C, washed 4 times over 10 minutes with Tris buffered saline containing Tween 20 (TBST) and tapped dry. […] 75µl of conjugate (appropriate hapten-HRP) diluted in Tris buffer (pH 7.2) containing EDTA, D-mannitol, sucrose, thimerosal and BSA, was added to each of the wells. The appropriate dilution of conjugate was also determined using standard ELISA checkerboard techniques. The plate was incubated at 25°C for 1 hour. Excess unbound conjugate was removed by washing 6 times over a 10 minute period with TBST. 125µl of tetramethylbenzidine (TMB) substrate solution was added to each well of the plate that was then incubated for 20 minutes in the dark at room temperature. The reaction was terminated by addition of 125µl 0.2M H2SO4 to each well. The absorbance was then measured at 450nm using a microtiter plate reader. The data are inputted to a computer program called 'KC Junior'. It is a 4 parameter fit curve and allow the calculatation of concentrations between the standard runs.
In a similar manner to that described above, the wells of a 96-well microtiter plate were coated with the IgG fraction of the antiserum raised to Immunogens I or II.
(§2) The data set our in Tables 3 and 4 are generated using antibodies raised against the indicated Immunogens in a competitive binding assay with the indicated tracers, using the indicated standards: Table 2
Using the calibration curves generated and employing a single level of cross reactants, these were used to determine the cross-reactivity of each immunoassay with these substances. These are the standards used for the IC50 and cross-reactivity data generation • Immunogen I - JWH-018 • Immunogen II - JWH-018 • Immunogen IV - JWH-018 • Immunogen VII - JWH-015 • Immunogen VIII - JWH-018 Table 4: Cross reactivity of the competitive ELISAs for synthetic cannabinoids and their metabolites

Antibody to Immunogen I = details: Cross-reactants at 100 ng/ml; Antibody to Immunogen I
Experimental: as §1
(§3) The wells of an enhanced binding 96 well polystyrene microtiter plate were coated with IgG fraction of antiserum raised to Immunogen I or II, diluted in 10mM Tris, pH8.5 (125µl/well). The appropriate antibody coating dilution was determined using standard ELISA checkerboard techniques. The plate was incubated overnight at 4°C, washed 4 times over 10 minutes with Tris buffered saline containing Tween 20 (TBST) and tapped dry. Standard solutions (JWH-018 for Immunogens I and II) were applied at 0, 0.625, 1.25, 2.5, 5, 10, 20 and 40ng/ml and 50µl of each was added to the appropriate wells. 75µl of conjugate (appropriate hapten-HRP) diluted in Tris buffer (pH 7.2) containing EDTA, D-mannitol, sucrose, thimerosal and BSA, was added to each of the wells. The appropriate dilution of conjugate was also determined using standard ELISA checkerboard techniques. The plate was incubated at 25°C for 1 hour. Excess unbound conjugate was removed by washing 6 times over a 10 minute period with TBST. 125µl of tetramethylbenzidine (TMB) substrate solution was added to each well of the plate that was then incubated for 20 minutes in the dark at room temperature. The reaction was terminated by addition of 125µl 0.2M H2SO4 to each well. The absorbance was then measured at 450nm using a microtiter plate reader. The data are inputted to a computer program called 'KC Junior'. It is a 4 parameter fit curve and allow the calculatation of concentrations between the standard runs. This program is used to calculate the IC50s by dividing the 0ng/ml OD value by 2 and obtaining the concentration value from the curve for this OD.
In a similar manner to that described above, the wells of a 96-well microtiter plate were coated with the IgG fraction of the antiserum raised to Immunogens I or II. Standard solutions (JWH-018 for Immunogen I and II) were applied at 0, 0.625, 1.25, 2.5, 5, 10, 20 and 40ng/ml and conjugate was employed as detection reagent.
as §2
(§4) A450 = absorbance at 450nm B = absorbance at 450nm at xng/ml standard concentration B0 = absorbance at 450nm at 0ng/ml standard concentration IC50 = standard concentration which produces 50% B/B0
(§5) In order to determine the specificity of the competitive ELISAs, standard solutions of a range of structurally similar synthetic cannabinoids and their metabolites were prepared in TBST. Using the calibration curves generated and employing a single level of cross reactants, these were used to determine the cross-reactivity of each immunoassay with these substances. […]

[1] = test system: Antibody to Immunogen VII
Experimental: as §1, §3
(§6) In a similar manner to that described above, the wells of a 96-well microtiter plate were coated with the IgG fraction of the antiserum raised to Immunogens IV, VII or VIII. Standard solutions (JWH-018 for Immunogens IV and VIII, JWH-015 for Immunogen VII) were prepared in TBST at 0, 1.25, 2.5, 5, 10, 20, 40 and 80ng/ml and conjugate was employed as detection reagent.
as §2, §4, §5

[2] = test system: Antibody to Immunogen VIII; details: Cross-reactants at 100 ng/ml; Antibody to Immunogen VIII
Experimental: as §1, §3, §6, §2, §4, §5

Antibody to Immunogen IV = details: Cross-reactants at 100 ng/ml; Antibody to Immunogen IV
Experimental: as §1, §3, §6, §2, §4, §5

[3] = Cross-reactants at 100 ng/ml, Antibody to Immunogen VII

Row | SMILES | %B/B0 (Antibody to Immunogen II) [%] | %B/B0 (Antibody to Immunogen I) [%] | %B/B0 [1, 3] [%] | %B/B0 [2] [%] | %B/B0 (Antibody to Immunogen IV) [%] | %B/B0 ([1]; JWH-015 standard 1.25 ng/ml) [%] | %B/B0 ([1]; JWH-015 standard 2.5 ng/ml) [%] | %B/B0 ([1]; JWH-015 standard 5 ng/ml) [%] | %B/B0 ([1]; JWH-015 standard 10 ng/ml) [%] | %B/B0 ([1]; JWH-015 standard 20 ng/ml) [%] | %B/B0 ([1]; JWH-015 standard 40 ng/ml) [%] | %B/B0 ([1]; JWH-015 standard 80 ng/ml) [%] | IC50 ([1]; Table 3c standard curve, standard concentration which produces 50% B/B0) [ng/mL]
1 | O=C(c1ccccc1I)c1cn(CCCCCF)c2ccccc12 [AM-694] | 36.18 | 12.17 | 75.66 | 11.92 | 11.30 | – | – | – | – | – | – | – | –
2 | CC(F)CCCn1cc(C(=O)c2cccc3ccccc23)c2ccccc21 (single isomer, unassigned) [AM-2201 N-(4-fluoropentyl) isomer] | 14.60 | 3.45 | 52.70 | 15.00 | 5.72 | – | – | – | – | – | – | – | –
3 | CCCCCn1c(C)c(C(=O)c2cccc3ccccc23)c2ccccc21 [JWH-007] | 66.06 | 32.96 | 27.77 | 61.76 | 60.63 | – | – | – | – | – | – | – | –
4 | C=CCCCn1cc(C(=O)c2cccc3ccccc23)c2ccccc21 [JWH-022] | 11.72 | 4.51 | 58.44 | 28.94 | 10.61 | – | – | – | – | – | – | – | –
5 | CCCCCn1cc(C(=O)c2c(C)ccc3ccccc23)c2ccccc21 [JWH 122 2-methylnaphthyl isomer] | 27.14 | 33.35 | 85.37 | 61.74 | 26.13 | – | – | – | – | – | – | – | –
6 | CCCC(C)n1cc(C(=O)c2cccc3ccccc23)c2ccccc21 (single isomer, unassigned) [JWH-018 N-(1-methylbutyl) isomer] | 51.92 | 12.42 | 67.71 | 63.22 | 73.49 | – | – | – | – | – | – | – | –
7 | O=C(c1cccc2ccccc12)c1cn(CCCC(O)CF)c2ccccc12 (stereo not shown) [AM-2201 N-(4-hydroxypentyl) metabolite] | 46.55 | 3.80 | 52.75 | 36.41 | 43.62 | – | – | – | – | – | – | – | –
8 | CCCn1c(C)c(C(=O)c2cccc3ccccc23)c2ccccc21 [JWH-015] | 65.67 | 14.67 | 17.84 | 92.27 | 93.20 | 75 | 62 | 54 | 43 | 34 | 26 | 20 | 5.910
9 | CCCCCCn1cc(C(=O)c2cccc3ccccc23)c2cc(O)ccc21 [JWH 019 5-hydroxyindole metabolite] | 17.34 | 19.81 | 87.58 | 101.57 | 93.84 | – | – | – | – | – | – | – | –
10 | CCCCn1cc(C(=O)c2cccc3ccccc23)c2c(O)cccc21 [JWH-073 4-hydroxyindole metabolite] | 40.14 | 39.50 | 82.82 | 26.23 | 28.69 | – | – | – | – | – | – | – | –
11 | CC(C)C(C)n1cc(C(=O)c2cccc3ccccc23)c2ccccc21 (single isomer, unassigned) [JWH 018 N-(1,2-dimethylpropyl) isomer] | 71.33 | 6.60 | 62.29 | 67.71 | 87.11 | – | – | – | – | – | – | – | –
12 | CCC(C)Cn1cc(C(=O)c2cccc3ccccc23)c2ccccc21 (single isomer, unassigned) [JWH-018 N-(2-methylbutyl) isomer (JWH-073 2-methylbutyl homologue), JWH-018 N-(2-methylbutyl) isomer] | 28.60 | 3.61 | 58.84 | 85.16 | 29.88 | – | – | – | – | – | – | – | –
13 | Cc1ccc(C(=O)c2cn(CCCCCO)c3ccccc23)c2ccccc12 [JWH-122 N-(5-hydroxypentyl) metabolite] | 71.76 | 42.80 | 83.65 | 48.67 | 25.72 | – | – | – | – | – | – | – | –
14 | O=C(O)CCCn1cc(C(=O)c2cccc3ccccc23)c2ccccc21 [JWH-073 N-butanoic acid metabolite] | 92.20 | 6.88 | 60.01 | 94.98 | 98.95 | – | – | – | – | – | – | – | –
15 | COc1ccc(C(=O)c2c(C)n(CCN3CCOCC3)c3cc(I)ccc23)cc1 [AM-630 (other name 6-Iodopravadoline), 6-Iodopravadoline] | – | 91.12 | 99.88 | 89.88 | 90.17 | – | – | – | – | – | – | – | –
16 | CCCCCn1cc(C(=O)c2ccc(CCC)c3ccccc23)c2ccccc21 [JWH-182] | – | 107.08 | 98.40 | 30.65 | 12.83 | – | – | – | – | – | – | – | –
17 | O=C(c1ccc(I)cc1)c1cn(CCCCCF)c2ccccc12 [AM-694 4-iodo isomer] | – | 73.79 | 98.71 | 13.42 | 27.66 | – | – | – | – | – | – | – | –
18 | CCCCCn1cc(C(=O)c2c(CC)ccc3ccccc23)c2ccccc21 [JWH-210 2-ethylnaphthyl isomer] | – | 81.37 | 96.13 | 73.51 | 53.97 | – | – | – | – | – | – | – | –
19 | CCc1ccc(C(=O)c2cn(CCCCCC(=O)O)c3ccccc23)c2ccccc12 [JWH-210 N-(5-carboxypentyl) metabolite] | – | 76.77 | 96.07 | 96.27 | 85.29 | – | – | – | – | – | – | – | –
20 | COc1ccccc1CC(=O)c1cn(CCCCCC(=O)O)c2ccccc12 [JWH 250 N-(5-carboxypentyl) metabolite] | – | 86.21 | 97.60 | 89.30 | 89.88 | – | – | – | – | – | – | – | –
21 | CN1CCCCC1Cn1cc(C(=O)c2cc([N+](=O)[O-])ccc2I)c2ccccc21 (stereo not shown) [AM-1241] | – | 85.61 | 94.96 | 102.46 | 91.38 | – | – | – | – | – | – | – | –
